# Measurements taken from ChEMBL document CHEMBL1201862, “PubChem BioAssay data set” (2004).
#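 Five compound concentrations were applied to cells in 96-well plates for 48 hours; endpoints were derived by simple linear interpolation of the resulting dose-response curve. Here, GI50 denotes the concentration required for 50% inhibition of growth.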 Active and inactive are the calls of the source. No stated cut-off is given here; in the data, active = GI50 up to about 1.1 µM and inactive = higher.
# Key:
# Test in all cases: growth of human tumour cells (NCI), 48 h
# UO-31 = test system: UO-31
# SF-539 = test system: SF-539
# RXF 393 = test system: RXF 393
# A549 = test system: A549
# SW-620 = test system: SW-620
# HOP-92 = test system: HOP-92
# OVCAR-4 = test system: OVCAR-4
# Malme-3M = test system: Malme-3M
# HL-60 = test system: HL-60
# TK-10 = test system: TK-10
# RPMI-8226 = test system: RPMI-8226
# SF-268 = test system: SF-268
# SK-MEL-2 = test system: SK-MEL-2
# NCI-H23 = test system: NCI-H23
# HOP-62 = test system: HOP-62
# CCRF-CEM = test system: CCRF-CEM
# PC-3 = test system: PC-3
# SK-MEL-28 = test system: SK-MEL-28
# K562 = test system: K562
# SNB-75 = test system: SNB-75
SMILES,GI50 (UO-31),GI50 (SF-539),GI50 (RXF 393),GI50 (A549),GI50 (SW-620),GI50 (HOP-92),GI50 (OVCAR-4),GI50 (Malme-3M),GI50 (HL-60),GI50 (TK-10),GI50 (RPMI-8226),GI50 (SF-268),GI50 (SK-MEL-2),GI50 (NCI-H23),GI50 (HOP-62),GI50 (CCRF-CEM),GI50 (PC-3),GI50 (SK-MEL-28),GI50 (K562),GI50 (SNB-75)
CC(C)(C)O/N=C/c1cc(NC(=S)c2ccccc2)ccc1Cl,12.8 µM (inactive),25.7 µM (inactive),12.3 µM (inactive),15.7 µM (inactive),18.7 µM (inactive),14.9 µM (inactive),18.3 µM (inactive),19 µM (inactive),16.3 µM (inactive),12.2 µM (inactive),11.5 µM (inactive),21.1 µM (inactive),16.6 µM (inactive),15.6 µM (inactive),13.7 µM (inactive),23 µM (inactive),16.4 µM (inactive),14 µM (inactive),–,–
O=c1[nH]c2cc(C(F)(F)F)ccc2nc1Cc1ccccc1,78.3 µM (inactive),63.2 µM (inactive),37.7 µM (inactive),–,> 100 µM (inactive),18.5 µM (inactive),63.7 µM (inactive),–,> 100 µM (inactive),> 100 µM (inactive),> 100 µM (inactive),44.2 µM (inactive),> 100 µM (inactive),23.4 µM (inactive),28.9 µM (inactive),> 100 µM (inactive),> 100 µM (inactive),> 100 µM (inactive),62.2 µM (inactive),41.6 µM (inactive)
Cc1cn(C2CC(O)C(Cn3cc(Cn4ncc(=O)[nH]c4=O)nn3)O2)c(=O)[nH]c1=O (stereo not drawn),> 100 µM (inactive),> 100 µM (inactive),> 100 µM (inactive),> 100 µM (inactive),> 100 µM (inactive),> 100 µM (inactive),> 100 µM (inactive),> 100 µM (inactive),> 100 µM (inactive),> 100 µM (inactive),> 100 µM (inactive),> 100 µM (inactive),> 100 µM (inactive),> 100 µM (inactive),> 100 µM (inactive),0.478 µM (active),> 100 µM (inactive),> 100 µM (inactive),–,> 100 µM (inactive)
O=C(NCc1ccccc1)c1cc2ccccc2o/c1=N\c1ccccc1F,8.39 µM (inactive),–,21.5 µM (inactive),18.1 µM (inactive),26.1 µM (inactive),20 µM (inactive),13.5 µM (inactive),25.2 µM (inactive),> 100 µM (inactive),13.6 µM (inactive),> 100 µM (inactive),30.8 µM (inactive),28.1 µM (inactive),21.5 µM (inactive),15.6 µM (inactive),> 100 µM (inactive),33.5 µM (inactive),66.2 µM (inactive),> 100 µM (inactive),20 µM (inactive)
CSC1(SC)CCCCCCCCCCC1,31.3 µM (inactive),> 100 µM (inactive),25 µM (inactive),31.6 µM (inactive),44.6 µM (inactive),36.8 µM (inactive),49.4 µM (inactive),25.5 µM (inactive),46.3 µM (inactive),90.2 µM (inactive),78.5 µM (inactive),53.7 µM (inactive),24 µM (inactive),68.9 µM (inactive),49.7 µM (inactive),22.9 µM (inactive),40.9 µM (inactive),44.9 µM (inactive),32 µM (inactive),–
